The term IC50 denotes the point on the concentration scale where inhibition reaches its midpoint.

Sequence of PI3Kalpha (P42336 whole entry, looked up): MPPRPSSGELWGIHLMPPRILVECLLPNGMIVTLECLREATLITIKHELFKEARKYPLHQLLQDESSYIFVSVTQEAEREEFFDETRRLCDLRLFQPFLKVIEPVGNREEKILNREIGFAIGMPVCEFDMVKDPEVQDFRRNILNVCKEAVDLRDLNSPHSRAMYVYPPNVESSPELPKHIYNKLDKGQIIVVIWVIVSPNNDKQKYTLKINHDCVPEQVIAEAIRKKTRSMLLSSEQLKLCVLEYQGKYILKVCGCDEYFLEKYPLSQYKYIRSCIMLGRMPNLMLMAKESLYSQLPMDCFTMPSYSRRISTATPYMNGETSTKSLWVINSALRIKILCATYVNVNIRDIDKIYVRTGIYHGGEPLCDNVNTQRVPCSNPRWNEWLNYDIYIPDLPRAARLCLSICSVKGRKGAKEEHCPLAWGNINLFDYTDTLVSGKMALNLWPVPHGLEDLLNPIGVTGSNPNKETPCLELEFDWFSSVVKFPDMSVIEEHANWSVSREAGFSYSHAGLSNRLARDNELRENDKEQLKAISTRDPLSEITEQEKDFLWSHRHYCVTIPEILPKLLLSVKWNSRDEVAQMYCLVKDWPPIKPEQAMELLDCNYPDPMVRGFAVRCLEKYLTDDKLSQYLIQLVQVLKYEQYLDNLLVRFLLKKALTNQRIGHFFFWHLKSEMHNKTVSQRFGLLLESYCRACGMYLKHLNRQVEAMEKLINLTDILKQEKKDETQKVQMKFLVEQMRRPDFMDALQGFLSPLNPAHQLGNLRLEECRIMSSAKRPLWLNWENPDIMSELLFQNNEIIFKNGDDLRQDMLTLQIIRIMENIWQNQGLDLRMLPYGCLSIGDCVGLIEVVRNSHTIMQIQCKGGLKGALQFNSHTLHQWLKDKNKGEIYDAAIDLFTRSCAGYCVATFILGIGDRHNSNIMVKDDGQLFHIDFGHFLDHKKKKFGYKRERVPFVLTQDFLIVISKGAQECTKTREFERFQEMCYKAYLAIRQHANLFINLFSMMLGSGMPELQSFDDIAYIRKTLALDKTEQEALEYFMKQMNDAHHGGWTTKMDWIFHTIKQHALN

The assay concerns the target PI3Kalpha (Homo sapiens (Human), UniProt P42336). The settings on record: read-out: IC50 PI3K.
`CCc1ncnc(-c2ccc(C(=O)N3CCN(CC4CC4)CC3)c(F)c2)c1C#Cc1ccc(N)nc1` [Example D-106]: the IC50 was found to be 249 nM.

For `CCc1ncnc(-c2cc(F)c(C(=O)N3CCN(C(C)CO)CC3)c(F)c2)c1C#Cc1ccc(N)nc1` (stereo not shown) [Example E-299], the IC50 is 160 nM.

`CCNc1ccc(C#Cc2c(CC)ncnc2-c2ccc(C(=O)N3CC4(CN(C(=O)OC(C)(C)C)C4)C3)c(F)c2)cn1` [Example E-267]: the IC50 was 421 nM.

Regarding `CCc1ncnc(-c2ccc(C(=O)N(C)OC)cc2)c1C#Cc1ccc(N)nc1` [Example D-225], the IC50 was 66 nM.

Consider `CCCCN1CCN(C(=O)c2ccc(-c3ncnc(CC)c3C#Cc3ccc(N)nc3)cc2Cl)CC1` [Example D-29], for which the IC50 was 162 nM.

Regarding `CCc1ncnc(-c2ccc(C(=O)N(C)CCCN(C)C)c(F)c2)c1C#Cc1ccc(N)nc1` [Example D-9], the IC50 was 591 nM.

With `CCc1ncnc(-c2ccc(N3CCOCC3)nc2)c1C#Cc1ccc(N)nc1` [Example C-32], the IC50 was determined as 32 nM.

For the compound `CCc1ncnc(-c2ccc(Cl)c(C(=O)NC)c2)c1C#Cc1ccc(N)nc1` [Example C-49], the IC50 was 67 nM.

On to `CCc1ncnc(-c2ccc(C(=O)NC)c(F)c2)c1C#Cc1ccc(N)nc1` [Example D-5], for which the IC50 was found to be 225 nM.

For the compound `CCc1ncnc(-c2ccc(C(=O)N3CCN(C4CCS(=O)(=O)C4)CC3)c(OC)c2)c1C#Cc1ccc(N)nc1` (stereo not shown) [Example E-54], the IC50 came to 165 nM.

With `CCc1ncnc(-c2ccc(C(=O)N3CCCOCC3)c(C)c2)c1C#Cc1ccc(N)nc1` [Example E-133], the IC50 worked out at 77.8 nM.

As to `CCc1ncnc(-c2cc(C)nc(C)c2)c1C#Cc1ccc(N)nc1` [Example C-4], the IC50 is 29 nM.

Consider `CCc1ncnc(-c2ccc(C(=O)NC[C@H]3CCCN3CC)c(F)c2)c1C#Cc1ccc(N)nc1` [Example D-200], for which the IC50 turned out to be 566 nM.

With `CCc1ncnc(-c2ccc(C(=O)N3CCN(CC4CCCCC4)CC3)c(C)c2)c1C#Cc1ccc(N)nc1` [Example E-113], the IC50 is 414 nM.

With `CCc1ncnc(-c2ccc(C(=O)N3CCC(N4CCN(C)CC4)CC3)c(Cl)c2)c1C#Cc1ccc(N)nc1` [Example E-70], the IC50 is 137 nM.

Turning to `CCc1ncnc(-c2ccc(C(=O)N3CCC(N4CCN(C5CCN(C)CC5)CC4)CC3)c(F)c2)c1C#Cc1ccc(N)nc1` [Example D-67], the IC50 turned out to be 244 nM.

Consider `CCc1ncnc(-c2ccc(C(=O)N3CCN(CC)CC3)c(Cl)c2)c1C#Cc1ccc(N)nc1` [Example D-45], for which the IC50 came to 186 nM.

In the case of `CCc1ncnc(-c2ccc(C(=O)N3CCN(C(C)=O)CC3)c(F)c2)c1C#Cc1ccc(N)nc1` [Example D-90], the IC50 is 62 nM.

Regarding `CCc1ncnc(-c2ccc(C(=O)NC3CC(N4CCCCC4)C3)c(F)c2)c1C#Cc1ccc(N)nc1` [Example D-207], the IC50 came out at 436 nM.

For the compound `CCc1ncnc(-c2ccc(C(=O)N3CC[C@@H](O)C3)c(Cl)c2)c1C#Cc1ccc(N)nc1` [Example E-28], the IC50 turned out to be 65.6 nM.

Take `CCc1ncnc(-c2ccc(C(=O)N3CCCN(C)CC3)c(F)c2)c1C#Cc1ccc(N)nc1` [Example D-118]: the IC50 is 404 nM.

In the case of `Cc1ncnc(-c2ccc(F)c(C(=O)N(C)C)c2)c1C#Cc1ccc(N)nc1` [Example C-9], the IC50 was determined as 254 nM.

Turning to `CCc1ncnc(-c2cc(F)c(C(=O)NC)c(F)c2)c1C#Cc1ccc(N)nc1` [Example E-12], the IC50 is 65 nM.

Consider `CCc1ncnc(-c2ccc(C(=O)N3CCC4(CC3)CN(C(=O)OC(C)(C)C)CCO4)c(F)c2)c1C#Cc1ccc(N)nc1` [Example E-321], for which the IC50 is 412 nM.

Take `CCc1ncnc(-c2cc(F)c(C(=O)N3CCC(N4CCOCC4)CC3)c(F)c2)c1C#Cc1ccc(N)nc1` [Example E-9]: the IC50 worked out at 199 nM.

On to `CCc1ncnc(-c2cc(F)c(C(=O)NCCN3CCOCC3)c(F)c2)c1C#Cc1ccc(N)nc1` [Example E-13], for which the IC50 worked out at 154 nM.

On to `Cc1ncnc(-c2cccc(C(=O)N3CCOCC3)c2)c1C#Cc1ccc(N)nc1` [Example C-37], for which the IC50 turned out to be 224 nM.

As for `CCc1ncnc(-c2ccc(C(=O)N3CCN4CCCCC4C3)c(OC)c2)c1C#Cc1ccc(N)nc1` (stereo not shown) [Example E-57], the IC50 was 280 nM.

Turning to `CCc1ncnc(-c2ccc(C(=O)N3CCN(CC(F)F)CC3)c(Cl)c2)c1C#Cc1ccc(N)nc1` [Example D-41], the IC50 was determined as 177 nM.

Consider `CCc1ncnc(-c2ccc(C(=O)N3CCN(C(C)C)CC3)c(OC)c2)c1C#Cc1ccc(N)nc1` [Example D-50], for which the IC50 came out at 211 nM.

Turning to `CCc1ncnc(-c2ccc(C(=O)N3CCC4(CCNCC4)C3)c(F)c2)c1C#Cc1ccc(N)nc1` [Example E-328], the IC50 is 586 nM.

For the compound `CCc1ncnc(-c2cc(F)c(C(=O)N3CCN(CCC#N)CC3)c(F)c2)c1C#Cc1ccc(NC)nc1` [Example E-221], the IC50 is 213 nM.

As to `CCc1ncnc(-c2ccc(C(=O)N(C)OC)c(OC)c2)c1C#Cc1ccc(N)nc1` [Example E-60], the IC50 was 69.4 nM.

In the case of `CCc1ncnc(-c2ccc(C(=O)N3CCNCC3)c(Cl)c2)c1C#Cc1ccc(N)nc1` [Example E-34], the IC50 came out at 164 nM.

Take `CCc1ncnc(-c2ccc(C(=O)N3CCN(C4COC4)CC3)c(F)c2)c1C#Cc1ccc(N)nc1C` [Example E-280]: the IC50 is 153 nM.

With `CCc1ncnc(-c2ccc(C(=O)N3CCC(CN(C)C)CC3)c(Cl)c2)c1C#Cc1ccc(N)nc1` [Example E-274], the IC50 worked out at 445 nM.

On to `CCc1ncnc(-c2ccc(C(=O)N3CCN(CCO)CC3)c(F)c2)c1C#Cc1ccc(N)nc1` [Example D-91], for which the IC50 worked out at 109 nM.

`CCc1ncnc(-c2ccc(C(=O)N3CCOC4(CCNCC4)C3)c(F)c2)c1C#Cc1ccc(N)nc1` [Example E-326]: the IC50 stood at 367 nM.

For `COCCN1CCN(C(=O)c2ccc(-c3ncnc(C)c3C#Cc3ccc(N)nc3)cc2)CC1` [Example D-189], the IC50 came out at 118 nM.

In the case of `CCc1ncnc(-c2ccc(C(=O)NCC3(C)COC3)c(Cl)c2)c1C#Cc1ccc(N)nc1` [Example D-159], the IC50 was found to be 66 nM.

As to `Cc1ncnc(-c2ccc(C(=O)N3CCN(C4CCS(=O)(=O)C4)CC3)cc2)c1C#Cc1ccc(N)nc1` [Example D-192], the IC50 stood at 134 nM.

In the case of `CCc1ncnc(-c2ccc(C(=O)N3CCN4CCC[C@@H]4C3)c(F)c2)c1C#Cc1ccc(N)nc1` [Example E-140], the IC50 was 198 nM.

On to `CCc1ncnc(-c2ccc(C(=O)N3CCN(C4CCOCC4)CC3)c(F)c2)c1C#Cc1ccc(NC)nc1` [Example E-179], for which the IC50 worked out at 276 nM.

For the compound `CCc1ncnc(-c2ccc(C(=O)N3CCC(N4CCCCC4)CC3)c(C)c2)c1C#Cc1ccc(N)nc1` [Example E-109], the IC50 came to 259 nM.

For the compound `CCc1ncnc(-c2ccc(C(=O)NC3CCN(CCOC)CC3)c(F)c2)c1C#Cc1ccc(N)nc1` [Example D-201], the IC50 was determined as 134 nM.

As to `COc1ccc(-c2ncnc(C)c2C#Cc2ccc(N)nc2)cn1` [Example C-23], the IC50 was found to be 78 nM.

On to `CCc1ncnc(-c2ccc(C(=O)N3CCCC(O)C3)c(F)c2)c1C#Cc1ccc(N)nc1` [Example D-110], for which the IC50 worked out at 64 nM.

Turning to `CCc1ncnc(-c2ccc(C(=O)N3CCC(N(C)C)C3)c(F)c2)c1C#Cc1ccc(N)nc1` [Example D-215], the IC50 amounted to 227 nM.

As to `CCc1ncnc(-c2ccc(C(=O)N3CCN(C(C)=O)CC3)c(Cl)c2)c1C#Cc1ccc(N)nc1` [Example D-46], the concentration for half-maximal inhibition (IC50) was 97 nM.

Source of the values: patent publication US8633183B2 (priority 2010, dated 2014).
